Reference: patent US20110020463A1, “THERAPEUTIC AGENT FOR FIBROMYALGIA SYNDROME AND THERAPEUTIC AGENT FOR PAIN CAUSED BY MUSCLE SPASM” (priority 2008, published 2011)

Experiments:
[1] = test system: fibromyalgia syndrome; details: human, in vivo
[2] = test system: right blepharism; details: human, in vivo

botulinum toxin
effect on generalized myalgia [1]: no effect | effect on right blepharism (eyelid) [2]: extremely effective
